The values below come from paper PMC12910498 (ACS pharmacology & translational science, 2026).

A short description of data set [1]: Phase I metabolic stability in rat liver microsomes (with NADPH). The data set is classed as in vitro ADME. To be noted: pH 7.4, presence of NADPH, mean ± SD, n = 3. The method, then:
(§1) We evaluated the Phase I metabolic stability of compounds 2−7 and 14−19 using rat and human liver microsomes, as previously described.[45]
(§2) Phase I metabolic stability assays were conducted using rat and human liver microsomes as previously described[45],[70] with minor modifications. In brief, the reactions were carried out with 100 mM potassium phosphate buffer, pH 7.4, in the presence of NADPH regenerating system (1.3 mM NADPH, 3.3 mM glucose 6-phosphate, 3.3 mM MgCl2, 0.4 U/mL glucose-6-phosphate dehydrogenase, 50 μM sodium citrate). Negative controls without cofactors were assessed to determine the non-CYP-mediated metabolism. Compound disappearance was monitored over time using a liquid chromatography and tandem mass spectrometry (LC/MS) method. All reactions were performed in triplicate.
(§3) Chromatographic analysis was performed on a Dionex ultra high-performance LC system coupled with Q Exactive Focus orbitrap mass spectrometer (Thermo Fisher Scientific Inc., Waltham MA). Separation was achieved using Agilent Eclipse Plus column (100 × 2.1 mm^2 i.d.; maintained at 35 °C) packed with a 1.8 μm C18 stationary phase. […] The total run time for each analyte was 6.5 min. Pumps were operated at a flow rate of 0.3 mL/min. The mass spectrometer controlled by Xcalibur software 4.0.27.13 (Thermo Scientific) was operated with a HESI ion source in positive ionization mode. Compounds were identified in the full-scan mode (from m/z 50 to 750) by comparing t = 0 samples with t = 30 min and t = 60 min samples.
In general terms: Microsomes from liver hold many membrane-bound enzymes, among them those of drug oxidation.

Data set [2] is described as follows: Non-Phase I metabolic stability in human liver microsomes (absence of NADPH). The data set is classed as in vitro ADME. The method, then:
We also evaluated the non-Phase I metabolic stability of compounds 2−7 and 14−19 using rat and human liver microsomes. […] This may represent metabolism by hydrolases that can specifically attack the amide. Evidence in support of this hypothesis is shown by the remarkable stability of all triazole analogs (14−19) in the absence of NADPH in Figure 5B,D.
as §2
Chromatographic analysis was performed on a Dionex ultra high-performance LC system coupled with Q Exactive Focus orbitrap mass spectrometer (Thermo Fisher Scientific Inc., Waltham MA). Separation was achieved using Agilent Eclipse Plus column (100 × 2.1 mm^2 i.d.; maintained at 35 °C) packed with a 1.8 μm C18 stationary phase. […] The total run time for each analyte was 6.5 min. […]

Data set [3] in a line: Phase I metabolic stability in human liver microsomes (with NADPH). The data set is classed as in vitro ADME. The settings on record: pH 7.4, presence of NADPH, mean ± SD, n = 3. The method, then: as §1, §2, §3
The target in data set [4] is T1, human D4R (Homo sapiens, UniProt P21917).
T1 sequence (P21917 1-419): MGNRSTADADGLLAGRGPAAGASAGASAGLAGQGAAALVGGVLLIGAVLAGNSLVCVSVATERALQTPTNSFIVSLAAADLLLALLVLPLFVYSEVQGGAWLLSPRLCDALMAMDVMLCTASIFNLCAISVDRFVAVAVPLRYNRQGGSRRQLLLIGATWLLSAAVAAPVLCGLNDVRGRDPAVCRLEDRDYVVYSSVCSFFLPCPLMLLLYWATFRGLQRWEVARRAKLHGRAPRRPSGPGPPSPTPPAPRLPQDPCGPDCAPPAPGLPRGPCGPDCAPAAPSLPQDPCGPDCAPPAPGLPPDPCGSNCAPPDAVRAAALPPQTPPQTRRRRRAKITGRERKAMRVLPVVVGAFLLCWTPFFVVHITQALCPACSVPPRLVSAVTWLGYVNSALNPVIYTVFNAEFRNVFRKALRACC
Also on record: host or cells: CHO-K1; method as in PMID 30883109. To be noted: previously reported, cited from earlier work.

Data set [5] has as its target T1, human D4R.
Data set [6] can be described thus: Aqueous solubility (remark). The data set is classed as physicochemical. The settings on record: remark in text.
The target of data set [7] is human D2R long isoform (Homo sapiens, UniProt P14416). Further details: host or cells: CHO-K1; method as in PMID 30883109. To be noted: antagonist mode; previously reported; cited from earlier work.

Each structure is given as a SMILES string. Like-named read-outs stand apart in the source and are kept apart here. A value given as a limit tells only on which side of the number the result lay.

human D2R long isoform, sequence (P14416 whole entry, canonical isoform): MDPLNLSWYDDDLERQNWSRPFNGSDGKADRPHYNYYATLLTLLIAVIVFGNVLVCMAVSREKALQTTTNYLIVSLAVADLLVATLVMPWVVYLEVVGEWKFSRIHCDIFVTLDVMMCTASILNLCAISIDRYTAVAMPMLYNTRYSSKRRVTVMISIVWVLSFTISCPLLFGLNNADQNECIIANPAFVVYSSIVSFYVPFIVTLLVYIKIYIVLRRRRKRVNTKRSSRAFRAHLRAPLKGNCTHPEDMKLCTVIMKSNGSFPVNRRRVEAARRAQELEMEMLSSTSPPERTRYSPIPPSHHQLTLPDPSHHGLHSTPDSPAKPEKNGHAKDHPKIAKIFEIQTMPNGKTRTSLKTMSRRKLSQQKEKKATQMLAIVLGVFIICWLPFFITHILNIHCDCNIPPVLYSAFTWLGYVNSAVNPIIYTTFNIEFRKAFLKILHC

Broadly, the half-life is the time needed for the level to fall by half in the phase considered. For orientation: IC50 means the concentration that gives 50% inhibition. Read a high IC50 as lower potency. On to `Cc1cccc(NC(=O)CN2CCN(c3cccc4ccccc34)CC2)c1` [Compound 6], for which the figures for the half-life in data set [1] and in data set [3] were 10.5 ± 0.03 min and 16.6 ± 0.17 min, respectively. Besides, the “non-Phase I metabolic stability” value in data set [2] is “relatively little non-Phase I metabolism”. In data set [4] (agonist mode), the “D4R Emax (%)” value is on record as 16.4 ± 3.9%. Further, the “D4R Ant. (%)” value is 96.7 ± 2.7% in data set [4] (antagonist mode); 91 ± 7% in data set [5] (cAMP, antagonist mode, 10 μM forskolin and 10 nM dopamine, normalized to spiperone). In data set [5], this compound registered an IC50 above 50 µM. The “D4R average activity at the highest tested dose” value in data set [5] (cAMP, agonist mode, at 33 μM (Emax ND)) is given as “ND (16% at 33 μM)”. In data set [6], the aqueous solubility entry is “poor aqueous solubility”. The “D2R Ant (%)” value in data set [7] is on record as 100 ± 0%.
